These results are taken from ChEMBL document CHEMBL1156990, “[(11)C]Dimebon, radiosynthesis and lipophilicity of a new potential PET agent for imaging of Alzheimer's disease and Huntington's disease” (Bioorg Med Chem Lett, 2010).

The data set can be described thus: Octanol-water partition coefficient, log P by reverse phase HPLC method. In kind it is physicochemical.

The compound `CC(=O)N(Cc1ccccc1O[11CH3])c1cnccc1Oc1ccccc1` gave a logP of 2.21.

For the compound `Cc1ccc2c(c1)c1c(n2CCc2ccc(C)nc2)CCN([11CH3])C1`, the log partition coefficient (logP) was 2.53.
